For one data set, the system named is A2780 CisR cells. Briefly: MTT cell viability assay, cisplatin resistance model. The format is cell-based. Particulars: for IC50: A2780 CisR cells, 72 h incubation, MTT; for resistance factor: ratio of IC50 in A2780 CisR cells to IC50 in parental A2780 cells. The procedure:
(§1) The rate of cell-survival under the action of test compounds was evaluated by an improved MTT assay as previously described for 3-(4,5-dimethylthiazol-2-yl)-2,5-diphenyltetrazolium bromide (MTT, Applichem, Germany) (Mueller, H., Kassack, M. U., Wiese, M. J. Biomol. Screen. 2004, 9, 506-515).
(§2) The assay is based on the ability of viable cells to metabolize yellow MTT to violet formazane crystals that can be detected spectrophotometrically. In brief, A2780 (ECACC, Salisbury, UK) and A2780 CisR cells (established by exposure of A2780 cells to weekly cycles of 2 µmol/L cisplatin over a period of 24 weeks) were seeded at a density of 8,000 cells/well in 96well plates (Corning, Germany) in 90 µL drug-free complete medium. After an incubation period of 24 h at 37 °C under humidified air supplemented with 5% CO2, cells were exposed to dilutions of the test compounds in 100 µL/well. Stock solutions were prepared in a concentration of 10^-2 M in water, and serial dilutions were prepared by using sodium chloride 0.9%. Incubation was ended after 72 h and cell survival was determined by addition of 25 µL/well MTT solution (5 mg/mL in phosphate buffered saline). After an incubation period of 10 min at 37 °C, the medium was carefully removed. The intracellular formazan product was solubilized by adding 75 µl DMSO/well. Absorbance was measured at 544 nm and 690 nm with a FLUOstar microplate-reader (BMG LabTech, Offenburg, Germany). The absorbance of untreated control cells was taken as 100% viability. All tests were performed in triplicate.
(§3) Indicated are mean values ± standard error of the mean. Concentration/inhibition curves were fitted to the data by nonlinear regression analysis using the four parameter logistic equation (GraphPad Prism).
Values are means ± SEM derived from a representative experiment performed in triplicate. The resistance factor was calculated as the ratio of the IC50 value of the A2780 CisR cells and the IC50 value of the corresponding sensitive parental A2780 cell line.

For the next data set, the system named is A2780. The data set can be described thus: MTT cell viability assay. The format is cell-based. The settings on record: A2780 cells, 72 h incubation. As for the experimental part:
as §1, §2, §3
On the technique in general: Formazan colour is commonly taken as a measure of viable cells.

The nature of data set [1]: Solubility observed during preparation. The format is physicochemical. Particulars: for solubility in solvents in general: most or all solvents (ambient temperature, including CH2Cl2 and THF; including DMSO).

Broadly, the IC50 is the concentration needed to halve the response being measured. The low end stands for higher potency, the high end for lower potency. With `N.N.O=C([O-])C1(C(=O)[O-])CCC1.[Pt+2]` [carboplatin, reference compound], the IC50 was 40.2 µM in the data set with A2780 CisR cells and 4.23 µM with A2780. The resistance factor in the data set on A2780 CisR cells came to 9.50.
Take `C1NCC2CNCC1C2.CN(C)C=O.[Cl][Pt][Cl]` [1b, (C7H14N2)PtCl2·DMF]: in data set [1], the “solubility in DMF” value is listed as “dissolve increasingly well”, the “solubility in DMSO” value is reported as “dissolve increasingly well”, the “solubility in solvents in general” value was “insoluble in most solvents” and the solubility in water result is recorded as “dissolve increasingly well”.
With `O=C([O-])C1(C(=O)[O-])CCC1.OC1(O)C2CNCC1CNC2.[Pt+2]` [compound 6, (Bispidin-9,9-diol)platinum(II)(1,1-cyclobutanedicarboxylate)], in data set [1], the “solubility in DMF” value is “dissolves well”, the “solubility in DMSO” value is “dissolves well” and the solubility in water entry is reported as “dissolves well”.
On to `O=C1[O][Pt]2([NH][C@@H]3CCCC[C@H]3[NH]2)[O]C1=O` (relative stereo) [oxaliplatin, trans-(R,R)-1,2-diamino-cyclohexane platinum(II)oxalate, reference compound], for which, in the data set on A2780 CisR cells, the 50% inhibitory concentration (IC50) was found to be 0.95 µM and the resistance factor amounted to 4.52. The molecule further yielded an IC50 in the data set on A2780 of 0.21 µM.
Take `C1NCC2CNCC1C2.O=C1[O][Pt][O]C1=O` [compound 3, (C7H14N2)Pt(C2O4)]: in the data set with A2780 CisR cells, the half-maximal inhibitory concentration (IC50) was found to be 35.3 µM and the resistance factor stood at 4.88. Moreover, half-maximal inhibition in the data set with A2780 (IC50) was put at 7.24 µM.
Regarding `C1NCC2CNCC1C2.[Cl][Pt][Cl]` [1a, (C7H14N2)PtCl2], in the data set with A2780 CisR cells, the midpoint of inhibition, the IC50, lay at 10.6 µM and the resistance factor stood at 2.52. Moreover, in the data set with A2780, it took 4.2 µM to reach half-maximal inhibition (IC50). In addition, in data set [1], the “solubility in DMF” value was “dissolve increasingly well”, the “solubility in DMSO” value is listed as “dissolve increasingly well”, the “solubility in solvents in general” value is on record as “insoluble in most solvents” and the solubility in water entry was “dissolve increasingly well”.
Turning to `C1NCC2CNCC1C2.O=C1[O][Pt][O]C(=O)C12CCC2` [2a, (C7H14N2)Pt{(O2C)2C4H6}], in the data set on A2780 CisR cells, 57.1 µM corresponded to half-maximal inhibition (IC50) and the resistance factor worked out at 6.46. This molecule also displayed an IC50 in the data set on A2780 of 8.84 µM. In addition, in data set [1], the “solubility in DMF” value was “poor” and the solubility in water entry is given as “more soluble in water than the dichloride 1”.
Consider `N.N.[Cl][Pt][Cl]` [cisplatin, cis-(NH3)2PtCl2, reference compound], for which half-maximal inhibition in the data set with A2780 (IC50) was put at 1.38 µM.
For `[Cl][Pt]1([Cl])[N]2CC3C[N]1CC(C2)C31OCCO1` [compound 4, (Spiro[bispidin-9,2'-[1,3]dioxolane])platinum(II)dichloride], the “solubility in solvents in general” value in data set [1] is “insoluble in all solvents, including DMSO”.
